PubChem BioAssay AID2060622 (Molecular Pharmacology Branch, DTP, NCI, 2025)

System: 242566-281-R-J2-PDC complex spheroid viability
Assay: Anticancer human tumor 242566-281-R-J2-PDC patient-derived pancreatic carcinoma cell line growth inhibition [CLK]
Conditions: for IC50: curve of first compound; for viability, T/C: stronger effect = lower value; active = viability on the fitted dose curve at most 10% of control; inactive = the rest
In short: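 Multi-cell-type spheroids combined patient-derived tumor cells with HUVEC endothelial cells and human mesenchymal stem cells. Paired agents were dosed in half-log steps down from about clinical Cmax, or from 10 microM where Cmax was unknown.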

[1] = second compound 0.0316 µM, first compound 0.0316 µM
[2] = second compound 0.0316 µM, first compound 0.1 µM
[3] = second compound 0.0316 µM, first compound 0.316 µM
[4] = second compound 0.0316 µM, first compound 1 µM
[5] = second compound 0.0316 µM, first compound 3.16 µM
[6] = second compound 0.0316 µM, first compound 10 µM
[7] = second compound 0.1 µM, first compound 0.0316 µM
[8] = second compound 0.1 µM, first compound 0.1 µM
[9] = second compound 0.1 µM, first compound 0.316 µM
[10] = second compound 0.1 µM, first compound 1 µM
[11] = second compound 0.1 µM, first compound 3.16 µM
[12] = second compound 0.1 µM, first compound 10 µM
[13] = second compound 0.316 µM, first compound 0.0316 µM
[14] = second compound 0.316 µM, first compound 0.1 µM
[15] = second compound 0.316 µM, first compound 0.316 µM
[16] = second compound 0.316 µM, first compound 1 µM
[17] = second compound 0.316 µM, first compound 3.16 µM
[18] = second compound 0.316 µM, first compound 10 µM
[19] = second compound 1 µM, first compound 0.0316 µM
[20] = second compound 1 µM, first compound 0.1 µM
[21] = second compound 1 µM, first compound 0.316 µM
[22] = second compound 1 µM, first compound 1 µM
[23] = second compound 1 µM, first compound 3.16 µM
[24] = second compound 1 µM, first compound 10 µM
[25] = second compound 3.16 µM, first compound 0.0316 µM
[26] = second compound 3.16 µM, first compound 0.1 µM
[27] = second compound 3.16 µM, first compound 0.316 µM
[28] = second compound 3.16 µM, first compound 1 µM
[29] = second compound 3.16 µM, first compound 3.16 µM
[30] = second compound 3.16 µM, first compound 10 µM
[31] = second compound 10 µM, first compound 0.0316 µM
[32] = second compound 10 µM, first compound 0.1 µM
[33] = second compound 10 µM, first compound 0.316 µM
[34] = second compound 10 µM, first compound 1 µM
[35] = second compound 10 µM, first compound 3.16 µM
[36] = second compound 10 µM, first compound 10 µM
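Note: spheroids exposed to compounds for 7 days before readout.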
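Throughout, for viability, T/C: 100% = DMSO vehicle control wells.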

Nc1ccn(C2OC(CO)C(O)C2(F)F)c(=O)n1 (stereo unspecified) + CNC(=O)c1ccc(Nc2nc(OC3CCCC3)c3c(-c4ccc5nc(C)oc5c4)c[nH]c3n2)c(OC)c1
0.0321 µM: IC50 (second compound 3.16 µM)
inactive: viability, T/C [1] 91.5% | viability, T/C [2] 42.9% | viability, T/C [3] 21.2% | viability, T/C [4] 12.3% | viability, T/C [7] 91.1% | viability, T/C [8] 53.3% | viability, T/C [9] 26.7% | viability, T/C [10] 15.5% | viability, T/C [11] 12.8% | viability, T/C [12] 10% | viability, T/C [13] 78% | viability, T/C [14] 40.5% | viability, T/C [15] 25.7% | viability, T/C [16] 14.8% | viability, T/C [17] 12.8% | viability, T/C [19] 62.8% | viability, T/C [20] 37.8% | viability, T/C [21] 19.3% | viability, T/C [22] 11.9% | viability, T/C [25] 50.1% | viability, T/C [26] 36.2% | viability, T/C [27] 16.3% | viability, T/C [31] 45.8% | viability, T/C [32] 34.7% | viability, T/C [33] 19.7% | viability, T/C [34] 9.76%
< 0.0316 µM: IC50 (second compound 10 µM)
0.0567 µM: IC50 (second compound 1 µM)
0.0849 µM: IC50 (second compound 0.0316 µM)
0.0771 µM: IC50 (second compound 0.316 µM)
0.115 µM: IC50 (second compound 0.1 µM)
active: viability, T/C [5] 9.35% | viability, T/C [6] 9.34% | viability, T/C [18] 8.22% | viability, T/C [23] 9.22% | viability, T/C [24] 6.78% | viability, T/C [28] 10.7% | viability, T/C [29] 7.99% | viability, T/C [30] 6.76% | viability, T/C [35] 8.5% | viability, T/C [36] 7.44%

O=C(c1cc(Cc2n[nH]c(=O)c3ccccc23)ccc1F)N1CCN(C(=O)C2CC2)CC1 + CNC(=O)c1ccc(Nc2nc(OC3CCCC3)c3c(-c4ccc5nc(C)oc5c4)c[nH]c3n2)c(OC)c1
inactive: viability, T/C [1] 94.9% | viability, T/C [2] 110% | viability, T/C [3] 96.1% | viability, T/C [4] 115% | viability, T/C [5] 95.6% | viability, T/C [6] 81.9% | viability, T/C [7] 97.9% | viability, T/C [8] 98.4% | viability, T/C [9] 117% | viability, T/C [10] 98.4% | viability, T/C [11] 88.4% | viability, T/C [12] 70.3% | viability, T/C [13] 92.6% | viability, T/C [14] 83.6% | viability, T/C [15] 87.6% | viability, T/C [16] 92.7% | viability, T/C [17] 92% | viability, T/C [18] 65% | viability, T/C [19] 81.9% | viability, T/C [20] 57.1% | viability, T/C [21] 65.5% | viability, T/C [22] 69.8% | viability, T/C [23] 70.5% | viability, T/C [24] 55.3% | viability, T/C [25] 63% | viability, T/C [26] 60% | viability, T/C [27] 58.6% | viability, T/C [28] 51.7% | viability, T/C [29] 52.2% | viability, T/C [30] 56.2% | viability, T/C [31] 52.5% | viability, T/C [32] 52.2% | viability, T/C [33] 52.7% | viability, T/C [34] 52.5% | viability, T/C [35] 46% | viability, T/C [36] 57.6%
> 10 µM: IC50 (second compound 0.0316 µM) | IC50 (second compound 0.1 µM) | IC50 (second compound 0.316 µM) | IC50 (second compound 1 µM) | IC50 (second compound 3.16 µM) | IC50 (second compound 10 µM)

O=c1[nH]cc(F)c(=O)[nH]1 + CNC(=O)c1ccc(Nc2nc(OC3CCCC3)c3c(-c4ccc5nc(C)oc5c4)c[nH]c3n2)c(OC)c1
inactive: viability, T/C [1] 108% | viability, T/C [2] 116% | viability, T/C [3] 83.9% | viability, T/C [4] 91.4% | viability, T/C [5] 66.5% | viability, T/C [6] 53.5% | viability, T/C [7] 96% | viability, T/C [8] 96.5% | viability, T/C [9] 86.4% | viability, T/C [10] 71.7% | viability, T/C [11] 63.9% | viability, T/C [12] 52.2% | viability, T/C [13] 86.1% | viability, T/C [14] 66.9% | viability, T/C [15] 67.6% | viability, T/C [16] 74% | viability, T/C [17] 53.9% | viability, T/C [18] 41.3% | viability, T/C [19] 67% | viability, T/C [20] 61.2% | viability, T/C [21] 62.6% | viability, T/C [22] 56.9% | viability, T/C [23] 45% | viability, T/C [24] 25.5% | viability, T/C [25] 51.9% | viability, T/C [26] 50.7% | viability, T/C [27] 44.7% | viability, T/C [28] 46.2% | viability, T/C [29] 38.2% | viability, T/C [30] 22.5% | viability, T/C [31] 48% | viability, T/C [32] 50.2% | viability, T/C [33] 47.3% | viability, T/C [34] 44.2% | viability, T/C [35] 34.2% | viability, T/C [36] 23.2%
< 0.0316 µM: IC50 (second compound 10 µM)
0.0776 µM: IC50 (second compound 3.16 µM)
> 10 µM: IC50 (second compound 0.0316 µM) | IC50 (second compound 0.1 µM)
5.15 µM: IC50 (second compound 0.316 µM)
1.94 µM: IC50 (second compound 1 µM)
